Measurements: patent US20260207623A1, “USE OF ESTETROL IN HEPATICALLY IMPAIRED PATIENTS” (ESTETRA SRL, priority 2022, published 2026)

Assay: Phase 1 pharmacokinetic study of a single oral dose of 20 mg E4 monohydrate in female subjects with normal hepatic function and mild, moderate or severe hepatic impairment (plasma, LC-MS/MS, non-compartmental analysis)
Assay type: in vivo, human
Details: for AUC0-24 h, GM / AUC0-24 h, Mean / AUC0-24 h, Median / AUCinf, GM / AUCinf, Mean / AUCinf, Median / AUClast, GM / AUClast, Mean / AUClast, Median / Cmax, GM / Cmax, Mean / Cmax, Median / T1/2, GM / T1/2, Mean / T1/2, Median / Tmax, Median / λz, GM / λz, Mean / λz, Median: single oral dose 20 mg E4 monohydrate, plasma; for time to primary peak of GM plasma concentrations: all groups
Method: This was a Phase 1, multi-centre, open-label, PK, and safety study of a single oral dose of 20 mg E4 monohydrate in female subjects with normal hepatic function (Group 1), mild hepatic impairment (Group 2), moderate hepatic impairment (Group 3), and severe hepatic impairment (Group 4), as defined using the Child-Pugh classification at Screening.
The study consisted of an eligibility Screening period (within 28 days prior to study drug administration), an Assessment Period with in-house period and outpatient visits (including a single oral dose of 20 mg E4 on Day 1), and a follow up visit. All subjects were confined to the study site from Day-1 (the day before dosing) until Day 4 and returned to the site every day from Day 5 to Day 9. Alternatively, the subjects could stay for a prolonged in-house period in agreement with the Investigator. The follow-up visit occurred on Day 14 (+2 days).
All subjects arrived at the study site in the morning of Day-1 in a fasted state (no food for at least 8 h, water was allowed) to have the scheduled assessments performed in order to confirm eligibility as outlined in the inclusion and exclusion criteria (Section 2.3.1 and Section 2.3.2, respectively). In the morning of Day 1 following an overnight fast, the subjects received oral dosing of 20 mg E4 monohydrate and remained at the site. Study-related assessments were performed at time points indicated in the Schedule of Assessments in Table 2.
Serial blood sampling for PK assessments started on Day 1 and proceeded until Day 9 according to the Pharmacokinetic Sampling Schedule presented in Table 3.
Each enrolled subject was to receive a single oral dose of 20 mg of E4 (estetrol) as monohydrate as a film-coated tablet.
Study drug was administered to subjects in the morning after an overnight fast of at least 8 h.
Calculation of non-compartmental PK parameters were done using WinNonlin™ Professional, Version 6.3 or higher.
The primary PK parameters to be analyzed for E4 in plasma: • Cmax=maximum observed plasma concentration • AUCinf=area under the concentration-time curve (AUC) from time zero extrapolated to infinity
The analysis of E4 and the metabolites E4-3-glucuronide and E4-16-glucuronide in plasma samples were performed at the Bioanalytical Laboratory of the CRO using a validated liquid chromatography-mass spectrometry/mass spectrometry method.
Individual and mean plasma concentrations at each sampling time point for E4 are presented by listings and descriptive summary statistics including means, geometric means (GMs), medians, ranges, standard deviations (SD) and coefficients of variation (CV). Individual, mean and/or median concentrations per hepatic function group were plotted versus time on semilogarithmic scales.
PK parameters were calculated by non-compartmental analysis. PK parameters were analysed using descriptive statistics and are presented by hepatic function group.
Analysis of variance (ANOVA) were used to compare primary PK parameters of E4 (Cmax and AUCinf) between subjects with hepatic impairment and subjects with normal hepatic function in an exploratory approach, using the log-transformed value of each PK parameter as dependent variable, and the hepatic impairment group (normal, mild, moderate, and severe) as a fixed classification factor. Geometric least squares means were used to calculate the ratios of primary PK parameters for each hepatic impairment group to those in the control group, along with 90% confidence intervals (CIs).
Additionally, the impact of age and BMI on the effect of hepatic impairment were evaluated using an ANOVA model similar as the ANOVA model described above, but with the interaction between each factor and the hepatic impairment group included as an additional factor.
The relationship between log-transformed PK parameters (Cmax and AUCinf) and continuous parameters (albumin, total bilirubin, and prothrombin time) used for the Child-Pugh score was explored by a linear regression approach. […]

## CC12CCC3c4ccc(OC5OC(C(=O)O)C(O)C(O)C5O)cc4CCC3C1C(O)C(O)C2O (centres unmarked) [E4-3-glucuronide, estetrol-3-glucuronide]
Mild hepatic impairment
  AUC0-24 h, GM: 315.86 ng·h/mL
  AUC0-24 h, Mean: 322.40 ng·h/mL
  AUC0-24 h, Median: 302.66 ng·h/mL
  AUCinf, GM: 497.24 ng·h/mL
  AUCinf, Mean: 506.96 ng·h/mL
  AUCinf, Median: 483.73 ng·h/mL
  AUClast, GM: 473.28 ng·h/mL
  AUClast, Mean: 483.07 ng·h/mL
  AUClast, Median: 440.22 ng·h/mL
  Cmax, GM: 113.610 ng/mL
  Cmax, Mean: 118.113 ng/mL
  Cmax, Median: 114.000 ng/mL
  T1/2, GM: 23.130 h
  T1/2, Mean: 24.540 h
  T1/2, Median: 24.692 h
  Tmax, Median: 0.490 h
  λz, GM: 0.0300 h⁻¹
  λz, Mean: 0.0318 h⁻¹
  λz, Median: 0.0281 h⁻¹
Moderate hepatic impairment
  AUC0-24 h, GM: 269.04 ng·h/mL
  AUC0-24 h, Mean: 282.87 ng·h/mL
  AUC0-24 h, Median: 299.08 ng·h/mL
  AUCinf, GM: 363.25 ng·h/mL
  AUCinf, Mean: 388.13 ng·h/mL
  AUCinf, Median: 412.85 ng·h/mL
  AUClast, GM: 311.58 ng·h/mL
  AUClast, Mean: 336.84 ng·h/mL
  AUClast, Median: 325.82 ng·h/mL
  Cmax, GM: 111.990 ng/mL
  Cmax, Mean: 122.863 ng/mL
  Cmax, Median: 133.000 ng/mL
  T1/2, GM: 14.390 h
  T1/2, Mean: 17.084 h
  T1/2, Median: 14.153 h
  Tmax, Median: 1 h
  λz, GM: 0.0500 h⁻¹
  λz, Mean: 0.0560 h⁻¹
  λz, Median: 0.0502 h⁻¹
Normal hepatic function
  AUC0-24 h, GM: 279.86 ng·h/mL
  AUC0-24 h, Mean: 290.53 ng·h/mL
  AUC0-24 h, Median: 309.09 ng·h/mL
  AUCinf, GM: 458.11 ng·h/mL
  AUCinf, Mean: 485.88 ng·h/mL
  AUCinf, Median: 495.16 ng·h/mL
  AUClast, GM: 446.22 ng·h/mL
  AUClast, Mean: 474.51 ng·h/mL
  AUClast, Median: 485.66 ng·h/mL
  Cmax, GM: 68.240 ng/mL
  Cmax, Mean: 73.238 ng/mL
  Cmax, Median: 70.100 ng/mL
  T1/2, GM: 19.540 h
  T1/2, Mean: 20.112 h
  T1/2, Median: 18.583 h
  Tmax, Median: 0.500 h
  λz, GM: 0.0400 h⁻¹
  λz, Mean: 0.0364 h⁻¹
  λz, Median: 0.0373 h⁻¹
Severe hepatic impairment
  AUC0-24 h, GM: 299.07 ng·h/mL
  AUC0-24 h, Mean: 314.97 ng·h/mL
  AUC0-24 h, Median: 264.88 ng·h/mL
  AUCinf, GM: 332.77 ng·h/mL
  AUCinf, Mean: 367.42 ng·h/mL
  AUCinf, Median: 305.49 ng·h/mL
  AUClast, GM: 325.76 ng·h/mL
  AUClast, Mean: 360.81 ng·h/mL
  AUClast, Median: 296.24 ng·h/mL
  Cmax, GM: 93.970 ng/mL
  Cmax, Mean: 96.250 ng/mL
  Cmax, Median: 91.550 ng/mL
  T1/2, GM: 7.710 h
  T1/2, Mean: 8.652 h
  T1/2, Median: 6.277 h
  Tmax, Median: 0.510 h
  λz, GM: 0.0900 h⁻¹
  λz, Mean: 0.1005 h⁻¹
  λz, Median: 0.1104 h⁻¹
  time to primary peak of GM plasma concentrations: ≤ 1 h
Mild hepatic impairment
  Tmax was reached within: ≤ 2 h
  time post dose until which concentrations remained above LLOQ in at least half of the subjects: 96 h
Moderate hepatic impairment
  Tmax was reached within: ≤ 2 h
  time post dose until which concentrations remained above LLOQ in at least half of the subjects: 48 h
Normal hepatic function
  time post dose until which concentrations remained above LLOQ in at least half of the subjects: 96 h
Normal hepatic function (due to an outlier)
  Tmax was reached within: ~ 6 h
Severe hepatic impairment
  Tmax was reached within: ≤ 1 h
  time post dose until which concentrations remained above LLOQ in at least half of the subjects: 36 h

## CC12CCC3c4ccc(O)cc4CCC3C1C(O)C(OC1OC(C(=O)O)C(O)C(O)C1O)C2O (centres unmarked) [E4-16-glucuronide]
Mild hepatic impairment
  AUC0-24 h, GM: 1017.08 ng·h/mL
  AUC0-24 h, Mean: 1038.91 ng·h/mL
  AUC0-24 h, Median: 1061.93 ng·h/mL
  AUCinf, GM: 1380.13 ng·h/mL
  AUCinf, Mean: 1389.24 ng·h/mL
  AUCinf, Median: 1358.39 ng·h/mL
  AUClast, GM: 1350.15 ng·h/mL
  AUClast, Mean: 1364.27 ng·h/mL
  AUClast, Median: 1329.47 ng·h/mL
  Cmax, GM: 711.100 ng/mL
  Cmax, Mean: 745.750 ng/mL
  Cmax, Median: 712.500 ng/mL
  T1/2, GM: 24.080 h
  T1/2, Mean: 24.634 h
  T1/2, Median: 25.699 h
  Tmax, Median: 0.490 h
  λz, GM: 0.0300 h⁻¹
  λz, Mean: 0.0295 h⁻¹
  λz, Median: 0.0270 h⁻¹
Moderate hepatic impairment
  AUC0-24 h, GM: 1244.09 ng·h/mL
  AUC0-24 h, Mean: 1293.40 ng·h/mL
  AUC0-24 h, Median: 1323.09 ng·h/mL
  AUCinf, GM: 1459.97 ng·h/mL
  AUCinf, Mean: 1518.70 ng·h/mL
  AUCinf, Median: 1534.85 ng·h/mL
  AUClast, GM: 1375.56 ng·h/mL
  AUClast, Mean: 1435.97 ng·h/mL
  AUClast, Median: 1459.15 ng·h/mL
  Cmax, GM: 734.210 ng/mL
  Cmax, Mean: 785.625 ng/mL
  Cmax, Median: 759.500 ng/mL
  T1/2, GM: 13.050 h
  T1/2, Mean: 14.217 h
  T1/2, Median: 12.381 h
  Tmax, Median: 0.985 h
  λz, GM: 0.0500 h⁻¹
  λz, Mean: 0.0580 h⁻¹
  λz, Median: 0.0560 h⁻¹
Normal hepatic function
  AUC0-24 h, GM: 643.44 ng·h/mL
  AUC0-24 h, Mean: 676.36 ng·h/mL
  AUC0-24 h, Median: 613.15 ng·h/mL
  AUCinf, GM: 896.29 ng·h/mL
  AUCinf, Mean: 946.46 ng·h/mL
  AUCinf, Median: 932.27 ng·h/mL
  AUClast, GM: 867.85 ng·h/mL
  AUClast, Mean: 919.86 ng·h/mL
  AUClast, Median: 894.59 ng·h/mL
  Cmax, GM: 353.110 ng/mL
  Cmax, Mean: 419.750 ng/mL
  Cmax, Median: 513.000 ng/mL
  T1/2, GM: 18.220 h
  T1/2, Mean: 19.245 h
  T1/2, Median: 17.755 h
  Tmax, Median: 0.500 h
  λz, GM: 0.0400 h⁻¹
  λz, Mean: 0.0402 h⁻¹
  λz, Median: 0.0391 h⁻¹
Severe hepatic impairment
  AUC0-24 h, GM: 1977.74 ng·h/mL
  AUC0-24 h, Mean: 2295.22 ng·h/mL
  AUC0-24 h, Median: 1922.86 ng·h/mL
  AUCinf, GM: 2081.97 ng·h/mL
  AUCinf, Mean: 2467.86 ng·h/mL
  AUCinf, Median: 1959.93 ng·h/mL
  AUClast, GM: 2057.13 ng·h/mL
  AUClast, Mean: 2443.30 ng·h/mL
  AUClast, Median: 1951.71 ng·h/mL
  Cmax, GM: 901.010 ng/mL
  Cmax, Mean: 952.625 ng/mL
  Cmax, Median: 894.000 ng/mL
  T1/2, GM: 8.450 h
  T1/2, Mean: 10.103 h
  T1/2, Median: 8.542 h
  Tmax, Median: 0.500 h
  λz, GM: 0.0800 h⁻¹
  λz, Mean: 0.0995 h⁻¹
  λz, Median: 0.0882 h⁻¹
  time to primary peak of GM plasma concentrations: ≤ 1 h
Mild hepatic impairment
  time post dose until which concentrations remained above LLOQ in at least half of the subjects: 96 h
Moderate hepatic impairment
  time post dose until which concentrations remained above LLOQ in at least half of the subjects: 72 h
Normal hepatic function
  time post dose until which concentrations remained above LLOQ in at least half of the subjects: 96 h
Severe hepatic impairment
  time post dose until which concentrations remained above LLOQ in at least half of the subjects: 48 h
Severe vs control group
  Maximum value of AUC0-24 h, severe hepatic impairment compared with control group: ~ 5 fold
  Maximum value of AUCinf, severe hepatic impairment compared with control group: ~ 4 fold
  Maximum value of AUClast, severe hepatic impairment compared with control group: ~ 4 fold
  Maximum value of Cmax, severe hepatic impairment compared with control group: ~ 2 fold
